Experimental data reported in article PMC6271783 (Molecules, 2014).
Entries after “also recorded” stand apart in the source; their conditions may differ.

Key:
rat α3β2 nAChRs [1] = biological target: T1, rat α3β2 nAChRs (Rattus norvegicus, UniProt P04757+P12390); type: biochemical
T1 construct: expressed in transfected cells; host or cells: Xenopus laevis oocytes injected with cRNA

[2] = system: AChBPs from different species; settings: cited from earlier work
rat α3β2 nAChRs [3] = biological target: T1, rat α3β2 nAChRs; assay: biochemical
[4] = type: physicochemical; settings: pH 7
α3β2 nAChRs = settings: cited from earlier work

T1 sequence (P04757 26-499 limits assumed): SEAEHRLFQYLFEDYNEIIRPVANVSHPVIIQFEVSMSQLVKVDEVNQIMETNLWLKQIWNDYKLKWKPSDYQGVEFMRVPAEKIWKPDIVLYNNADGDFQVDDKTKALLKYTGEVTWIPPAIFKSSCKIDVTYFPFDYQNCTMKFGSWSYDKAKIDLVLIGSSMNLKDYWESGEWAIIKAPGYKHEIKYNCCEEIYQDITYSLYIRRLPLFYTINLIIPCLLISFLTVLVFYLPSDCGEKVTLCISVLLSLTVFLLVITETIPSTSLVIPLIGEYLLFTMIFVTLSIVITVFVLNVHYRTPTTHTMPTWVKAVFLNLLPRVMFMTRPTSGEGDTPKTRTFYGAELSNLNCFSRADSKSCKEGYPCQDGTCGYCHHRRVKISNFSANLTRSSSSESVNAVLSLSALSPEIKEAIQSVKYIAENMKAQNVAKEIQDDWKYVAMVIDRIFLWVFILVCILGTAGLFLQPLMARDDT
T1 sequence (P12390 25-500 limits assumed): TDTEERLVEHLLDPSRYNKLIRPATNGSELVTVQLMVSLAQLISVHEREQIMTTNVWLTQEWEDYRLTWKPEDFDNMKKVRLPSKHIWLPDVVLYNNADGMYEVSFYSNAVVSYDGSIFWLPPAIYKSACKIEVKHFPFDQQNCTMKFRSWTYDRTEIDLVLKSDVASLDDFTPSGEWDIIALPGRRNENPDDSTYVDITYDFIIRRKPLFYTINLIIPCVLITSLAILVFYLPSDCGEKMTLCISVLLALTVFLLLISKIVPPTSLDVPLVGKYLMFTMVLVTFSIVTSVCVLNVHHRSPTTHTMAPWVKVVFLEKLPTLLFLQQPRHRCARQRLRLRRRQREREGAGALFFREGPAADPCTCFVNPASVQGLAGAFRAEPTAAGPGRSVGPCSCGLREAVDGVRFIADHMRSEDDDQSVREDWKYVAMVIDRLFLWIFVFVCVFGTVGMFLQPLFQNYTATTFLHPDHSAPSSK

| Compound | relative potency among venom components (rat α3β2 nAChRs [1]) | affinity to AChBPs [2] | IC50 (rat α3β2 nAChRs [3]) | activity on α3β2 nAChRs (rat α3β2 nAChRs [3]) | fold more potent than ribbon isomer (rat α3β2 nAChRs [3]) | inhibition of ACh-evoked response (rat α3β2 nAChRs [3]) | reversibility of inhibition (rat α3β2 nAChRs [3]) | CD minimum [4] | CD minimum, second of double minimum [4] | secondary structure by CD [4] | selectivity (α3β2 nAChRs) | fold less potent than globular isomer (rat α3β2 nAChRs [3]) | inhibition at 0.5 µM (rat α3β2 nAChRs [3]; read-out: inhibition of ACh evoked current amplitude) |
| --- | --- | --- | --- | --- | --- | --- | --- | --- | --- | --- | --- | --- | --- |
| CC[C@H](C)[C@@H]1NC(=O)[C@@H]2CSSC[C@H](NC(=O)CN)C(=O)N[C@@H](CSSC[C@@H](C(N)=O)NC(=O)[C@H](CC(C)C)NC(=O)[C@H](CC(=O)O)NC(=O)[C@@H]3CCCN3C(=O)[C@H](CC(N)=O)NC(=O)[C@H](CC(N)=O)NC(=O)[C@H](C)NC1=O)C(=O)N[C@@H](CO)C(=O)N[C@@H](CCCNC(=N)N)C(=O)N1CCC[C@H]1C(=O)N1CCC[C@H]1C(=O)N2 [globular TxIA, α-conotoxin TxIA] | most potent component; also recorded: highest potency | high affinity | 5.4 nM | most potent isoform; also recorded: strongly inhibited; also recorded: most active form | ~ 80 -fold | almost complete inhibition | reversibly inhibited | around 208 nm | ~222 nm | contained some α-helical structure | selectively targeted the α3β2 nAChRs | – | – |
| CC[C@H](C)[C@@H]1NC(=O)[C@@H]2CSSC[C@H](NC(=O)[C@@H](NC(=O)CN)CSSC[C@@H](C(N)=O)NC(=O)[C@H](CC(C)C)NC(=O)[C@H](CC(=O)O)NC(=O)[C@@H]3CCCN3C(=O)[C@H](CC(N)=O)NC(=O)[C@H](CC(N)=O)NC(=O)[C@H](C)NC1=O)C(=O)N[C@@H](CO)C(=O)N[C@@H](CCCNC(=N)N)C(=O)N1CCC[C@H]1C(=O)N1CCC[C@H]1C(=O)N2 [ribbon TxIA] | – | – | 430 nM | weaker potency | – | – | – | – | – | between them | – | ~ 80 times | ~65% |
